How the values were obtained:
[1] = molecular target: T1, full-length beta-Catenin (Uniprot ID P35222) (Homo sapiens, UniProt P35222); experiment: Fluorescence polarization IC50 (beta-catenin / 5FAM-TCF4 10-53 competition); assay type: binding; conditions: fluorescence polarization; read-out: beta-Catenin FP IC50
T1 construct: 10 nM full-length beta-Catenin (Uniprot ID P35222)
T1 sequence (P35222 1-781): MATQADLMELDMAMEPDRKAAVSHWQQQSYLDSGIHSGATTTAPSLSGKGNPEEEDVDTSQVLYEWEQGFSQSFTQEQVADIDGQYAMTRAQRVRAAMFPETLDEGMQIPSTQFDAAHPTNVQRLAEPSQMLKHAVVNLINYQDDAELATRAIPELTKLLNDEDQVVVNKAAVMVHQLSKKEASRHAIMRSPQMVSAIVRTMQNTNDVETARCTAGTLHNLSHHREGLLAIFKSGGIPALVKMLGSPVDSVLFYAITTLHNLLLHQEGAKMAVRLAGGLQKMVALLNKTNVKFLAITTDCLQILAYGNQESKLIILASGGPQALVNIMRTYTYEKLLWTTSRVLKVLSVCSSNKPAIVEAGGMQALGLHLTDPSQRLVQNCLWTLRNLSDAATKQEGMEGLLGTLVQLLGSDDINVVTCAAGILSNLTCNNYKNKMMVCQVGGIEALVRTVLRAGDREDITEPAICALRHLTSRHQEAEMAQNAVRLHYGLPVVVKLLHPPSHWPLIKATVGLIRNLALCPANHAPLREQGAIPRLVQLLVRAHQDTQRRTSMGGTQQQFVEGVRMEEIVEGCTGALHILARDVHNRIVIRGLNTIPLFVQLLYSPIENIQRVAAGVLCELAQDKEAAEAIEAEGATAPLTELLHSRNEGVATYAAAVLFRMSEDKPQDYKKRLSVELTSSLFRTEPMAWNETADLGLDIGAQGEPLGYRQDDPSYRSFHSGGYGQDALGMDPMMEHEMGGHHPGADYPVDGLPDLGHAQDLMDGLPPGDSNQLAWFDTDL

[2] = molecular target: T2, beta-catenin/TCF4 engagement (Homo sapiens, UniProt P35222); experiment: Nano-BRET target engagement assay (B-cat-Halo & TCF4-Luc in HEK293 cells); assay type: cell-based; conditions: read-out: NanoBRET Abs IC50
T2 construct: expressed in transfected cells; host or cells: HEK293
T2 sequence (P35222 1-781): T1 sequence (P35222 1-781)

IC50 [1] [nM]	IC50 [2] [nM]	Structure (SMILES)
136	> 20000	CC(=O)N1CCC[C@]12CC=CCCCC1(CCCC=CCCCOC(=O)N3CC[C@@](C(=O)N[C@@H](Cc4ccccc4Cl)C(=O)N[C@@H](Cc4csc5ccccc45)C(=O)N[C@@H](CO)C(N)=O)(C3)NC(=O)[C@H](CC(C)C)NC(=O)[C@H](Cc3ccccc3)NC(=O)[C@H](C)NC(=O)C(C)(C)NC(=O)[C@H](Cc3cccc(C(=O)O)c3)NC(=O)[C@H](CC(=O)O)NC1=O)NC(=O)[C@H](CC(C)(C)C)NC(=O)[C@H](CC(=O)O)NC2=O (stereo partly drawn) [I-1900, Ac-PL3-Asp-Npg-B5-Asp-3COOHF-Aib-Ala-Phe-Leu-PyrS2-2C1F-BztA-Ser-NH2]
34	4900	CC(=O)N1CCC[C@]12CC=CCCCC1(CCCC=CCCCOC(=O)N3CC[C@@](C(=O)N[C@@H](Cc4ccccc4Cl)C(=O)N[C@@H](Cc4csc5ccccc45)C(=O)N[C@@H](CO)C(N)=O)(C3)NC(=O)[C@H](CC(C)C)NC(=O)[C@H](Cc3ccccc3)NC(=O)[C@H](C)NC(=O)[C@H](CO)NC(=O)[C@H](Cc3cccc(C(=O)O)c3)NC(=O)[C@H](CC(=O)O)NC1=O)NC(=O)[C@H](CC(C)(C)C)NC(=O)[C@H](CC(=O)O)NC2=O (stereo partly drawn) [I-1901, Ac-PL3-Asp-Npg-B5-Asp-3COOHF-Ser-Ala-Phe-Leu-PyrS2-2C1F-BztA-Ser-NH2]
28	7700	CC(=O)N1CCC[C@]12CC=CCCCC1(CCCC=CCCCOC(=O)N3CC[C@@](C(=O)N[C@@H](Cc4ccccc4Cl)C(=O)N[C@@H](Cc4csc5ccccc45)C(=O)N[C@@H](CO)C(N)=O)(C3)NC(=O)[C@H](CC(C)C)NC(=O)[C@H](Cc3ccccc3)NC(=O)[C@H](C)NC(=O)[C@H](CO)NC(=O)[C@H](Cc3cccc(C(=O)O)c3)NC(=O)[C@H](CC(=O)O)NC1=O)NC(=O)[C@H](CC(C)(C)C)NC(=O)[C@H](CC(=O)O)NC2=O (stereo partly drawn) [I-1902, Ac-PL3-Asp-Npg-B5-Asp-3COOHF-Ser-Ala-Phe-Leu-PyrS2-2C1F-BztA-Ser-NH2]
14	6400	CC(=O)N1CCC[C@]12CC=CCCCC1(CCCC=CCCCOC(=O)N3CC[C@@](C(=O)N[C@@H](Cc4ccccc4Cl)C(=O)N[C@@H](Cc4csc5ccccc45)C(=O)N[C@@H](CO)C(N)=O)(C3)NC(=O)[C@H](CO)NC(=O)[C@H](Cc3ccccc3)NC(=O)[C@H](C)NC(=O)[C@H](C)NC(=O)[C@H](Cc3cccc(C(=O)O)c3)NC(=O)[C@H](CC(=O)O)NC1=O)NC(=O)[C@H](CC(C)(C)C)NC(=O)[C@H](CC(=O)O)NC2=O (stereo partly drawn) [I-1903, Ac-PL3-Asp-Npg-B5-Asp-3COOHF-Ala-Ala-Phe-Ser-PyrS2-2C1F-BztA-Ser-NH2]
20	9700	CC(=O)N1CCC[C@]12CC=CCCCC1(CCCC=CCCCOC(=O)N3CC[C@@](C(=O)N[C@@H](Cc4ccccc4Cl)C(=O)N[C@@H](Cc4csc5ccccc45)C(=O)N[C@@H](CO)C(=O)N[C@H](CO)[C@@H](C)O)(C3)NC(=O)[C@H](CC(C)C)NC(=O)[C@H](Cc3ccccc3)NC(=O)[C@H](C)NC(=O)[C@H](C)NC(=O)[C@H](Cc3cccc(C(=O)O)c3)NC(=O)[C@H](CC(=O)O)NC1=O)NC(=O)[C@H](CC(C)(C)C)NC(=O)[C@H](CC(=O)O)NC2=O (stereo partly drawn) [I-1905, Ac-PL3-Asp-Npg-B5-Asp-3COOHF-Ala-Ala-Phe-Leu-PyrS2-2C1F-BztA-Ser-Thro1]
23	15500	CC(=O)N1CCC[C@]12CC=CCCCC1(CCCC=CCCCOC(=O)N3CC[C@@](C(=O)N[C@@H](Cc4ccccc4Cl)C(=O)N[C@@H](Cc4csc5ccccc45)C(=O)N[C@@H](CO)C(=O)N4CCC[C@H]4CO)(C3)NC(=O)[C@H](CC(C)C)NC(=O)[C@H](Cc3ccccc3)NC(=O)[C@H](C)NC(=O)[C@H](C)NC(=O)[C@H](Cc3cccc(C(=O)O)c3)NC(=O)[C@H](CC(=O)O)NC1=O)NC(=O)[C@H](CC(C)(C)C)NC(=O)[C@H](CC(=O)O)NC2=O (stereo partly drawn) [I-1906, Ac-PL3-Asp-Npg-B5-Asp-3COOHF-Ala-Ala-Phe-Leu-PyrS2-2C1F-BztA-Ser-Prool]
